Some test systems named below: IGROV1 ovarian; HT29 colon; SW-620 colon; SK-MEL-5 melanoma; COLO 205 colon; KM12 colon; HCT-116 colon; A498 renal; OVCAR-8 ovarian; MOLT-4 leukemia.
Holding throughout (assay): NCI-60 cell line screen, 48 h

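48-hour exposure; five concentrations; linearly interpolated endpoints. Abbreviation: GI50, concentration required for 50% inhibition of growth. TGI denotes the concentration required for complete inhibition of growth.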

Consider `COC(=O)Nc1nc2ccc(NC(=O)c3cccs3)cc2[nH]1`, for which the TGI with IGROV1 ovarian was 14.4 µM; in the assay with HT29 colon it was greater than 100 µM; with SW-620 colon, greater than 100 µM; in the assay on SK-MEL-5 melanoma it was 82.5 µM; with COLO 205 colon, greater than 100 µM; in the assay with KM12 colon it was greater than 100 µM. The TGI in the assay on HCT-116 colon was greater than 100 µM; in the assay on A498 renal it was 88.7 µM; in the assay on OVCAR-8 ovarian, greater than 100 µM; in the assay on MOLT-4 leukemia, greater than 100 µM.

Turning to `O=C1OC2CC=CC1C2` (stereo not given), the TGI in the assay on IGROV1 ovarian, in the assay with HT29 colon, with SW-620 colon, in the assay with SK-MEL-5 melanoma, in the assay on COLO 205 colon and with KM12 colon was greater than 100 µM in each case. The TGI in the assay on HCT-116 colon, in the assay on A498 renal, in the assay with OVCAR-8 ovarian and with MOLT-4 leukemia was greater than 100 µM throughout.

Regarding `C=C1C(=O)OC2CC1CCC1(C)OC1CCC(C)=CCCC2(C)O` (stereo not given), the TGI stood at 15.8 µM with IGROV1 ovarian; 10.7 µM in the assay with HT29 colon; 3.82 µM in the assay on SW-620 colon; 10.2 µM in the assay on SK-MEL-5 melanoma; 5.95 µM in the assay with COLO 205 colon; 12.9 µM with KM12 colon. In addition, the TGI was found to be 8.7 µM with HCT-116 colon, 3.52 µM with A498 renal, 7.78 µM in the assay on OVCAR-8 ovarian and 9.2 µM in the assay on MOLT-4 leukemia.

Turning to `c1ccc(C[N+]23CN4CN(CN(C4)C2)C3)cc1`, the TGI in the assay on IGROV1 ovarian was greater than 100 µM; in the assay on HT29 colon, greater than 100 µM; in the assay on SW-620 colon it was 69.5 µM; in the assay on SK-MEL-5 melanoma, 50 µM; with COLO 205 colon, 35.8 µM; in the assay on KM12 colon, greater than 100 µM. Also, the TGI is 85.3 µM in the assay with HCT-116 colon, greater than 100 µM with A498 renal, 81.8 µM in the assay with OVCAR-8 ovarian and 43.9 µM in the assay on MOLT-4 leukemia.

As for `O=C1CCCC2C3CC(CN12)C1CCCCN1C3` (stereo not given), the TGI in the assay with IGROV1 ovarian, with HT29 colon, in the assay with SW-620 colon, in the assay on SK-MEL-5 melanoma, in the assay on COLO 205 colon and in the assay on KM12 colon was greater than 100 µM throughout. The TGI in the assay on HCT-116 colon, in the assay with A498 renal, with OVCAR-8 ovarian and in the assay with MOLT-4 leukemia was greater than 100 µM in each case.

In the case of `CN1CC(CNC(=O)OCc2ccccc2)CC2c3cccc4c3c(cn4C)CC21` (stereo not given), the GI50 is 1.77 µM in the assay with IGROV1 ovarian; 1.4 µM with HT29 colon; 1.59 µM with SW-620 colon; 1.49 µM in the assay on SK-MEL-5 melanoma; 1.37 µM in the assay with COLO 205 colon; 2.14 µM in the assay on KM12 colon. Besides, the GI50 in the assay with HCT-116 colon is 1.72 µM; in the assay with A498 renal, 3.47 µM; in the assay on OVCAR-8 ovarian it was 1.75 µM; with MOLT-4 leukemia, 2.36 µM. Further, the TGI amounted to 4.49 µM in the assay with IGROV1 ovarian; 3.27 µM in the assay on HT29 colon; 3.12 µM in the assay with SW-620 colon; 2.86 µM with SK-MEL-5 melanoma; 2.75 µM with COLO 205 colon; 4.65 µM with KM12 colon. Besides, the TGI stood at 4.18 µM in the assay with HCT-116 colon, 16 µM with A498 renal, 3.51 µM with OVCAR-8 ovarian and 5.25 µM in the assay on MOLT-4 leukemia.

For `O=C1OCc2cc3cc4c(cc3c(-c3ccc5c(c3)OCO5)c21)OCO4` (tested in a mixture with another compound), the TGI was 66.7 µM with IGROV1 ovarian; greater than 100 µM with HT29 colon; greater than 100 µM in the assay on SW-620 colon; 33.6 µM in the assay with SK-MEL-5 melanoma; 75.1 µM in the assay on COLO 205 colon; greater than 100 µM in the assay on KM12 colon. For the same compound, the TGI with HCT-116 colon is 13.7 µM; in the assay on A498 renal it was greater than 100 µM; in the assay with OVCAR-8 ovarian it was greater than 100 µM; in the assay on MOLT-4 leukemia, 72.5 µM.

As for `O=C(COc1ccc(Cl)c(Cl)c1)N(Cc1ccccc1)Cc1ccc[n+](Cc2ccc(Cl)cc2S(=O)(=O)F)c1`, the TGI in the assay on IGROV1 ovarian was greater than 100 µM; with HT29 colon it was greater than 100 µM; in the assay on SW-620 colon, greater than 100 µM; in the assay with SK-MEL-5 melanoma it was 64.7 µM; in the assay with COLO 205 colon, greater than 100 µM; in the assay with KM12 colon, 56.6 µM. Moreover, the TGI with HCT-116 colon is greater than 100 µM; with A498 renal, greater than 100 µM; with OVCAR-8 ovarian, greater than 100 µM; with MOLT-4 leukemia, 54.8 µM.

`COc1ccc(NC(=S)N/N=C(\C)c2nc3ncccc3[nH]2)cc1`: the TGI is 53.6 µM with IGROV1 ovarian; greater than 100 µM with HT29 colon; greater than 100 µM in the assay with SW-620 colon; 29.1 µM with SK-MEL-5 melanoma; greater than 100 µM with COLO 205 colon; greater than 100 µM in the assay with KM12 colon. Moreover, the TGI in the assay on HCT-116 colon worked out at 24.8 µM; with A498 renal it was 98.2 µM; with OVCAR-8 ovarian, 63.3 µM; with MOLT-4 leukemia, 43.9 µM.

`Cl/C(=C\C=Nc1ccc(I)cc1)c1ccc2ccccc2c1`: the TGI is greater than 55.7 µM in the assay on IGROV1 ovarian; greater than 100 µM in the assay on HT29 colon; 68.6 µM in the assay with SW-620 colon; 38.7 µM with SK-MEL-5 melanoma; 43 µM in the assay with COLO 205 colon; 33.5 µM in the assay on KM12 colon. Moreover, the TGI with HCT-116 colon was 33.2 µM; with A498 renal, greater than 90 µM; in the assay with OVCAR-8 ovarian, 41.3 µM; in the assay with MOLT-4 leukemia, 13.6 µM.

As for `CC(=O)NNC(=O)C1CCCCN1` (stereo not given), the TGI with IGROV1 ovarian, with HT29 colon, in the assay with SW-620 colon, in the assay with SK-MEL-5 melanoma, with COLO 205 colon and in the assay on KM12 colon was greater than 100 µM each time. In addition, the TGI in the assay on HCT-116 colon, in the assay on A498 renal, in the assay with OVCAR-8 ovarian and in the assay on MOLT-4 leukemia was greater than 100 µM in each case.

For the origin of these results see PubChem BioAssay (NCI).
